# Assay results reported in patent US8461141B2, “Preventive or therapeutic drug for Alzheimer-type dementia” (Mochida Pharmaceutical Co., Ltd., priority 2005, dated 2013).
# Several values for one entry are separate records, joined by “and”; a condition that tells them apart may be missing. Equal values may be shown once.
# Legend:
# [1] = test system: patients diagnosed with cerebrovascular dementia; test: Hasegawa Dementia Scale and symptom observation in patients with cerebrovascular dementia (Reference Example); format: in vivo, human; settings: for Hasegawa Dementia Scale After 2 months: individual cerebrovascular dementia patients, EPA-E alone 300 or 600 mg/day for 2 months
# Experimental: (§1) Each patient was evaluated for the improvement of the dementia by Hasegawa Dementia Scale at the start of the test, 2 months after the start of the test (2 months from the start of administering ethyl icosapentate), and 6 months after the start of the test (4 months after the start of the combined administration of the ethyl icosapentate and the levothyroxine sodium).
# [2] = test system: patients diagnosed with Alzheimer-type dementia; test: Hasegawa Dementia Scale and symptom observation in patients with Alzheimer-type dementia; format: in vivo, human; settings: for Hasegawa Dementia Scale After 2 months: individual Alzheimer-type dementia patients, EPA-E alone 300 or 600 mg/day for 2 months, scale of 30
# Experimental: as §1
structure (smiles),measurement,setting,value
"CC/C=C\C/C=C\C/C=C\C/C=C\C/C=C\CCCC(=O)OCC [EPA-E, ethyl icosapentate]",Score of the Hasegawa Dementia Scale (range) 2 months after the start of the test,"[1]; 10 cerebrovascular dementia patients, EPA-E alone 300-600 mg/day",(9-15)
same,Score of the Hasegawa Dementia Scale (average ± standard deviation) 2 months after the start of the test,"[1]; 10 cerebrovascular dementia patients, EPA-E alone 300-600 mg/day, at the start 10.4 ± 1.7",11.2 ± 1.9
same,Hasegawa Dementia Scale After 2 months,[1]; EPA-E 300 mg/day,13 and 10 (2×) and 12
same,Hasegawa Dementia Scale After 2 months,[1]; EPA-E 600 mg/day,15 and 11 (2×) and 12 and 9 (2×)
same,Score of the Hasegawa Dementia Scale (range) 2 months after the start of the test,"[2]; 14 Alzheimer-type dementia patients, EPA-E alone 300-600 mg/day",(7-17)
same,Score of the Hasegawa Dementia Scale (average ± standard deviation) 2 months after the start of the test,"[2]; 14 Alzheimer-type dementia patients, EPA-E alone 300-600 mg/day, at the start 10.0 ± 3.5",11.4 ± 3.0
same,"Change in the scores of the Hasegawa Dementia Scale, in words","[2]; Alzheimer-type dementia patients, sole administration of ethyl icosapentate 300 to 600 mg/day for 2 months",no substantial change
same,Hasegawa Dementia Scale After 2 months,[2]; EPA-E 300 mg/day,14 and 12 and 11 and 10 and 7 and 9
same,Hasegawa Dementia Scale After 2 months,[2]; EPA-E 600 mg/day,7 and 8 and 11 (2×) and 17 and 13 and 15 and 14
